{
  "source": "paper PMC7849180",
  "about": "(Frontiers in Pharmacology, 2020)",
  "key": {"[1]": {"tested_on": "myeloproliferative neoplasm", "assay": "JAK2V617F transgenic mouse model", "format": "in vivo, JAK2V617F transgenic mice", "settings": "100 mg/kg daily oral gavage, 4 weeks", "method": "Suzhou Zelgen Biopharmaceuticals Co., Ltd. Jaktinib Hydrochloride Tablets Chemical Drug Class 1 New Drug […]\ncells at a concentration of 1 μM. […]\neffectively affect the primary cells harboring the JAK2V617F mutation in patients with […]\nIn Vivo Pharmacodynamic Study of ZG0128 in Mouse Model of Myeloproliferative Neoplasm\nPrimary myelofibrosis (PMF) is characterized by the formation of bone marrow fibrous tissues (scar-like) caused by the abnormal proliferation of three types of cells (platelets, white blood cells, and red blood cells). At present, there is still no particularly effective treatment for these diseases. JAKV617F transgenic mice and JAK2V617F bone marrow transplanted mice can develop the pathological characteristics of myeloproliferative neoplasm, which can be used to effectively evaluate the efficacy of drugs used in the treatment of myeloproliferative neoplasms.\nHCD-57-JAK2V617F cells were intravenously injected into NSG mice. Three weeks later, the mice were injected intraperitoneally with a single dose of 200 mg/kg of compound ZG0128, and euthanized 4 h after drug administration. The results of […]\nThe ability of compound ZG0128 and its positive control drug ZG0192 to inhibit the pathological characteristics of myeloproliferative tumors (MPNs) was evaluated in a JAK2V617F bone marrow transplanted mouse model. […]"}, "[2]": {"tested_on": "primary cells harboring the JAK2V617F mutation in patients with polycythemia vera", "assay": "Colony forming of erythroid hematopoietic cells of polycythemia vera patients", "format": "cell-based, human", "settings": "1 μM", "description": "(§1) Suzhou Zelgen Biopharmaceuticals Co., Ltd. Jaktinib Hydrochloride Tablets Chemical Drug Class 1 New Drug and ZG0178. However, the inhibitory effect on the activity of Ba/F3-EpoR cell line […]\n(§2) respectively. Obviously, this selective inhibition is associated with the aberrant expression of JAK2 in Ba/F3-EpoR-JAK2V617F mutant cells, and the degree of ZG0163 inhibition on JAK-STAT signaling pathway in this cell line. […]\n(§3) cells, and the effects of ZG0163 was similar to those of positive control compounds, […]\n(§4) In Vitro Inhibitory Effect of ZG0128 on Cell Lines Transfected with Oncogenes and Primary Blood Cells in Patients with Polycythemia Vera\n(§5) In vitro cell culture assay was used to determine whether compound ZG0128 […]\n(§6) cell line harboring a JAK2V617F mutation, and 8 HCD-57 cell lines stably transfected with oncogenic mutations JAK2V617F, MPLW515L, KITD816V, NPM-ALK, FLT3-ITD, FLT3D835H, FLT3D835Y and KRasG12V, respectively. In addition, study the inhibitory effects of compound ZG0128 on the growth of hematopoietic progenitor cells in patients with polycythemia vera.\n(§7) 9 cell lines were similar to those of positive control drug ZG0192. At the sub-micromolar concentration, both compounds ZG0128 and ZG0192 were able to […]\n(§8) the growth of HCD-57 cells transfected with oncogenic mutations JAK2V617F, […]\n(§9) spectrum inhibitory effect on tyrosine kinases. […]"}, "Ba/F3-EpoR cell line": {"tested_on": "Ba/F3-EpoR cell line", "assay": "Cell activity of Ba/F3-EpoR cell line", "format": "cell-based", "settings": "read-out: IC50, inhibition of cell activity", "description": "as §1, §2, §3, §4, §5, §6, §7, §8, §9"}, "[3]": {"assay": "Treatment-related AEs (NCI CTCAE), SAD cohorts", "format": "in vivo, human", "method": "In SAD part, volunteers were designed into eight SAD cohorts (25, 50, 100, 150, 200, 250, 300 and 400 mg). Among these cohorts, 25 mg was bisected by the 50 mg specification under good manufacturing practices (GMP) condition and provided the certificate of analysis. […] Jaktinib or placebo was administrated after an overnight fast.\nDose-limiting toxicities (DLTs) were defined according to the NCI CTCAE v.4.03 as any occurrence of the following drug-related adverse events (AEs): more than one third of volunteers suffered Grade ≥4 drug-related hematological toxicities or Grade ≥3 drug-related nonhematological toxicities; one drug-related serious adverse events (SAEs)."}, "[4]": {"settings": "all SAD volunteers who received jaktinib"}},
  "data": [
    {"compound": "Cl.Cl.O.[2H]C1([2H])COCC([2H])([2H])N1c1ccc(Nc2nccc(-c3ccc(C(=O)NCC#N)cc3)n2)cc1", "note": "[ZG0128, Jaktinib Dihydrochloride Monohydrate]", "values": [
      {"measurement": "counts of three types of blood cells and spleen volume", "setting": "[1]", "value": "significant decrease"},
      {"measurement": "colony forming of erythroid hematopoietic cells", "setting": "[2]", "value": "almost completely inhibited"}
    ]},
    {"compound": "Jaktinib", "values": [
      {"measurement": "IC50", "setting": "Ba/F3-EpoR cell line", "value": 1.5, "unit": "µM"},
      {"measurement": "Elevated serum creatinine", "setting": "[3]; 25 mg, Grade 1–2", "value": "1 (16.7) n (%)"},
      {"measurement": "Hematuria", "setting": "[3]; 100 mg, Grade 1–2", "value": "1 (16.7) n (%)"},
      {"measurement": "Fecal leukocytosis", "setting": "[3]; 150 mg, Grade 1–2", "value": "1 (16.7) n (%)"},
      {"measurement": "Hyperglycemia", "setting": "[3]; 150 mg, Grade 1–2", "value": "1 (16.7) n (%)"},
      {"measurement": "Mucous stool", "setting": "[3]; 150 mg, Grade 1–2", "value": "1 (16.7) n (%)"},
      {"measurement": "Positive fecal occult blood", "setting": "[3]; 150 mg, Grade 1–2", "value": "1 (16.7) n (%)"},
      {"measurement": "Upper abdominal pain", "setting": "[3]; 150 mg, Grade 1–2", "value": "1 (16.7) n (%)"},
      {"measurement": "Urinary sediment positive", "setting": "[3]; 150 mg, Grade 1–2", "value": "1 (16.7) n (%)"},
      {"measurement": "Urine erythrocyte positive", "setting": "[3]; 150 mg, Grade 1–2", "value": "3 (50.0) n (%)"},
      {"measurement": "Urine leukocyte positive", "setting": "[3]; 150 mg, Grade 1–2", "value": "2 (33.3) n (%)"},
      {"measurement": "Nausea", "setting": "[3]; 200 mg, Grade 1–2", "value": "1 (16.7) n (%)"},
      {"measurement": "Urine erythrocyte positive", "setting": "[3]; 200 mg, Grade 1–2", "value": "1 (16.7) n (%)"},
      {"measurement": "Fever", "setting": "[3]; 250 mg, Grade 1–2", "value": "1 (16.7) n (%)"},
      {"measurement": "Headache", "setting": "[3]; 250 mg, Grade 1–2", "value": "1 (16.7) n (%)"},
      {"measurement": "Varicella", "setting": "[3]; 250 mg, Grade 3", "value": "1 (16.7) n (%)"},
      {"measurement": "Dizziness", "setting": "[3]; 300 mg, Grade 1–2", "value": "1 (16.7) n (%)"},
      {"measurement": "Fever", "setting": "[3]; 300 mg, Grade 1–2", "value": "1 (16.7) n (%)"},
      {"measurement": "Headache", "setting": "[3]; 300 mg, Grade 1–2", "value": "4 (66.7) n (%)"},
      {"measurement": "Lymphocytopenia", "setting": "[3]; 300 mg, Grade 1–2", "value": "1 (16.7) n (%)"},
      {"measurement": "Neutrophilic granulocytosis", "setting": "[3]; 300 mg, Grade 1–2", "value": "1 (16.7) n (%)"},
      {"measurement": "Anemia", "setting": "[3]; 400 mg, Grade 1–2", "value": "1 (16.7) n (%)"},
      {"measurement": "volunteers with treatment-related AEs", "setting": "[3]; all SAD cohorts", "value": 28.1, "unit": "%"},
      {"measurement": "Headache incidence", "setting": "[3]; [4]", "value": 10.4, "unit": "%"},
      {"measurement": "positive urine erythrocyte incidence", "setting": "[3]; [4]", "value": 8.3, "unit": "%"}
    ]}
  ]
}
